Experimental data as given in US20250179057A1, “MEK IMMUNE ONCOLOGY INHIBITORS AND THERAPEUTIC USES THEREOF” (Immuneering Corporation, priority 2022, published 2025).
pIC50: −log10 of the molar value.

Tests used:
[1] = Guo et al Lancet Oncol. 2020; cited from earlier work
[2] = tested on: phospho-MEK in A549 cells; test: Cell-based pMEK (pMEK:tMEK, CRAF bypass) in A549 cells; conditions: 2 h, pMEK to total MEK normalized to DMSO control
How it was run: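 Cells (A549 or A375) exposed 2 h to compounds at varying concentrations in duplicate, then lysed; lysates set to 1.5 mg/mL for pMEK by quantitative Western (Jess). Phospho-MEK/total MEK ratio normalized to DMSO control.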

[3] = Human liver microsome stability (t1/2, Clint); conditions: 1 μM; 0.5 mg/ml microsomal protein
[4] = Kinetic solubility (PBS pH 7.4; 4 hr); format: physicochemical; conditions: PBS pH = 7.4; 4 hr (Table 8)
Protocol: The plates were shaken for 4 h at room temperature in an Eppendorf Thermomixer. After incubation, the plates were centrifuged for 20 minutes at 4680 rpm. From the supernatant, 150 μL was transferred to a new 96 well plate and 50 μL DMSO was added to ensure continued dissolution. Samples were measured on LC-UV at injection volumes of 1 and 8 μL. Peak areas were determined and compared to peak areas obtained using calibration curves of the test compounds in DMSO.

[5] = eLogD (lipophilicity; pH 7.4) by HPLC; format: physicochemical
Protocol: Test compounds were dissolved in DMSO at a concentration of 10 mM and further diluted with methanol:water 1:1. Samples were analyzed using gradient HPLC with three different isocratic mobile phases of 0.25% octanol in methanol (60, 65 and 70%) and 20 mM MOPS buffer (pH 7.4) with decylamine. If needed, (for low E log Doct compounds) the isocratic mobile phases were adjusted to e.g. 40, 45 and 50% methanol. Peaks were detected using a diode array at absorbance 220-320 nm.
Capacity factors data (k′_=(tr−_t0)/t0) obtained at various amounts of methanol were extrapolated to 0% methanol and k′w values are determined using a linear procedure. E log Doct (7.4) is calculated using a series of reference standards with known Log D values. Each experiment was performed in triplicate.

PAMPA (pH 7.4) = format: in vitro ADME; conditions: pH = 7.4
[6] = tested on: phospho-ERK in A549 (KRAS G12S) cells; test: Cell-based pERK (pERK:tERK) in A549 cells
How it was run: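 A549 cells in 6-well plates were treated with compound at a predetermined concentration for 2 hours at 37 °C. Lysates were then normalised by Bradford protein assay to 1 mg/mL for pERK. Phospho-ERK and total ERK were detected by Western blot with IRDye secondary antibodies and quantified by LI-COR Odyssey imaging.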

[7] = Mouse liver microsome stability (t1/2, Clint); conditions: 1 μM; 0.5 mg/ml microsomal protein
[8] = Plasma stability, human plasma (K2EDTA); format: in vitro ADME
Protocol: (§1) Individual stock solutions of propantheline and lovastatin were prepared at 10 mM in DMSO and were further diluted to 2 mM with DMSO.
(§2) Frozen matrices (Balb/c mouse, Wistar Han rat, Beagle dog, and human plasma containing K2EDTA as anti-coagulant) were thawed and centrifuged at 3100 rpm for 10 minutes at 4° C. to remove particulates. The lipid layer was then removed, and the supernatant was transferred to a new tube without disturbing the pellet. After the matrices were incubated at 37° C. for at least 10 minutes, the pH of each matrix was adjusted to pH 7.4, using 10% phosphoric acid or 1N sodium hydroxide as necessary. Test and control article stock solutions were spiked (2 μL) into matrix (1.998 mL) and mixed to final assay concentration of […]. Duplicate 30-μL aliquots of spiked plasma were transferred to matrix tubes in 96-well plate immediately after spiking for timepoints of 0, 30, 60, 120, 240, and 360 minutes. These tubes were then incubated at 37° C. with shaking and at each timepoint, the corresponding tubes containing samples were quenched with 180 μL of cold acetonitrile containing the internal standards. The quenched samples were vortex-mixed briefly and stored refrigerated. After the final time point (360 minutes), the plates with all quenched samples were vortex-mixed for 10 minutes and then centrifuged at 3100 rpm for 10 minutes at 4° C. to sediment the precipitated protein. The supernatant (50 μL) was transferred to a clean 96-well plate and diluted with 100 μL of water. The plates were stored refrigerated until analysis.
(§3) Data Analysis: Peak area ratios for IS-normalized test article and control article counts were used to calculate the percent remaining relative to the time zero (T0) value. As appropriate, results were plotted and further analyzed to calculate half-life (T1/2) values.
(§4) Mean peak area ratios were used to calculate the % remaining relative to the T0 value:
(§5) In this study, human, cynomolgus monkey, beagle dog, wistar hannover rat, and balb/c plasma stability was determined. Table 28 describes the results of the human plasma stability at 2 μM concentration and anti-coagulant K2-EDTA from 10 to 120 min. Table 29 describes the results of the cynomolgus monkey plasma stability at 2 μM concentration and anti-coagulant K2-EDTA. Table 30 describes the results of the beagle dog plasma stability at 2 μM concentration and anti-coagulant K2-EDTA. Table 31 describes the results of the wistar hannover rat plasma stability at 2 μM concentration and anti-coagulant K2-EDTA. Table 32 describes the results of the balb/c plasma stability at 2 μM concentration and anti-coagulant K2-EDTA.

[9] = Plasma stability, mouse plasma (Balb/c; Table 5 head CD-1 Mouse); format: in vitro ADME; conditions: BALB/c, mouse, plasma, pH 7.4
Protocol: as §1, §2, §3, §4, §5

[10] = as above; format: in vitro ADME; conditions: 2 μM
[11] = Plasma stability, cynomolgus monkey plasma (K2-EDTA); format: in vitro ADME
Protocol: as §1, §2, §3, §4, §5

[12] = Plasma stability, rat plasma (Wistar Han / wistar hannover; Table 5 head SD Rat); format: in vitro ADME; conditions: Wistar Hannover, rat, plasma, pH 7.4
Protocol: as §1, §2, §3, §4, §5

[13] = Plasma stability, beagle dog plasma (K2EDTA); format: in vitro ADME
Protocol: as §1, §2, §3, §4, §5

Question: For `CNS(=O)(=O)Nc1nccc(Cc2c(C)c3ccc(Oc4ncccn4)cc3oc2=O)c1F` [VS-6766], which mean terminal half-life [1] is on record?
Answer: 53.6 h

Question: With `CNS(=O)(=O)Nc1cccc(Cc2c(CN3CCC3)c3cc(Cl)c(OC(=O)N(C)C)cc3oc2=O)c1F` [Compound 19] as the compound, how does the “A549-CRAF BP 100 nM, 2 h” value [2] read?
Answer: 51.9

Question: And the “Human Clint” value [3]?
Answer: 37 µL/min/mg

Question: And the “Human Microsome (t1/2 min)” value [3]?
Answer: 0.633 h

Question: And the “Kinetic Solubility (PBS pH = 7.4; 4 hr)” value [4]?
Answer: >80 uM

Question: What about the “eLogD (lipophilicity; pH = 7.4)” value [5] of the same compound?
Answer: 2.9

Question: And the “PAMPA (pH = 7.4; Papp 10^−6 cm/s)” value (PAMPA (pH 7.4))?
Answer: 51 10^−6 cm/s

Question: What about the “A549-pERK (10 nM, 2 h)” value ([6]; 10 nM, 2 h, phospho- to total protein ratio normalized to DMSO control (Table 9)) of the same compound?
Answer: 59.9

Question: What about the pIC50 ([6]; A549, 12-point dose) of the same compound?
Answer: 7.30 to 7.40

Question: What about the “Mouse Clint” value [7] of the same compound?
Answer: 26 µL/min/mg

Question: And the “Mouse Microsome (t1/2 min)” value [7]?
Answer: 0.883 h

Question: Which results are given for `CC(C)[N+](C)(CCOC(=O)C1c2ccccc2Oc2ccccc21)C(C)C` [Propantheline, reference compound]?
Answer: Human (% Reamining @2 hour) ([8]; human, 2 h, 2 μM, pH 7.4): 5.7%; % Remaining at T120 ([8]; human, plasma, 2 h, 2 μM, pH 7.4): 20.8%; half-life at 2 μM ([8]; human, plasma, pH 7.4): 0.943 h; % Remaining at T120 ([9]; 2 h, 2 μM): 37.3%; half-life at 2 μM [9]: 1.68 h; CD-1 Mouse (% Reamining @2 hour) ([10]; CD-1, mouse, 2 h, pH 7.4): 27.1%; % Remaining at T120 ([11]; 2 μM, anti-coagulant K2-EDTA, 120 min): 84.6%; half-life at 2 μM ([11]; plasma (K2EDTA), pH 7.4, anti-coagulant K2-EDTA): 7.5 h; % Remaining at T120 ([12]; 2 h, 2 μM): 115.2%; half-life at 2 μM [12]: > 2 h; Beagle Dog (% Reamining @2 hour) ([13]; beagle, dog, 2 h, 2 μM, pH 7.4): 58.4%; % Remaining at T120 ([13]; beagle, dog, plasma, 2 h, 2 μM, pH 7.4): 71.0%; half-life at 2 μM ([13]; beagle, dog, plasma, pH 7.4): 4.87 h

Question: For `CC[C@H](C)C(=O)O[C@H]1C[C@@H](C)C=C2C=C[C@H](C)[C@H](CC[C@@H]3C[C@@H](O)CC(=O)O3)[C@H]21` [Lovastatin, reference compound], which “Human (% Reamining @2 hour)” value ([8]; 2 μM, plasma, 2 hour) is on record?
Answer: 81.8%

Question: What about the “CD-1 Mouse (% Reamining @2 hour)” value ([10]; plasma, 2 hour) of the same compound?
Answer: 0.6%

Question: And the “Beagle Dog (% Reamining @2 hour)” value ([13]; 2 μM, plasma, 2 hour)?
Answer: 94.1%
